Laboratory results from patent US12077503B2, “Substituted cyclic amides and their use as herbicides” (FMC CORPORATION, priority 2015, dated 2024).
Read-outs that look alike come from different tables or passages of the source.

What was measured:
Assay type in all cases: in vivo
Kochia (Kochia scoparia) [1] = test: Test A preemergence; details: Bassia scoparia, pre-emergence, 240 h; for pest or weed control at 125 g/ha: 125 g ai/ha; for pest or weed control at 500 g/ha: 500 g ai/ha
Procedure, shortened: (§1)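 Preemergence soil spray on seeded pots or post-emergence spray on 1–2 leaf plants, in loam–sand blend. Greenhouse ~10 d. Visual rating 0–100 against untreated plants.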

[2] = test system: barnyardgrass (Echinochloa crus-galli); test: Test A preemergence; details: Echinochloa crus-galli, pre-emergence, 240 h; for pest or weed control at 125 g/ha: 125 g ai/ha; for pest or weed control at 500 g/ha: 500 g ai/ha
Procedure, shortened: as §1

[3] = test system: giant foxtail (Setaria faberii); test: Test A preemergence; details: Setaria faberi, pre-emergence, 240 h; for pest or weed control at 125 g/ha: 125 g ai/ha; for pest or weed control at 500 g/ha: 500 g ai/ha
Procedure, shortened: as §1

[4] = test system: pigweed (Amaranthus retroflexus); test: Test A preemergence; details: Amaranthus retroflexus, pre-emergence, 240 h; for pest or weed control at 125 g/ha: 125 g ai/ha; for pest or weed control at 500 g/ha: 500 g ai/ha
[5] = test system: ragweed (common ragweed, Ambrosia elatior); test: Test A preemergence; details: Ambrosia artemisiifolia, pre-emergence, 240 h; for pest or weed control at 125 g/ha: 125 g ai/ha; for pest or weed control at 500 g/ha: 500 g ai/ha
Procedure, shortened: as §1

[6] = test system: ryegrass, Italian (Italian ryegrass, Lolium multiflorum); test: Test A preemergence; details: Lolium multiflorum, pre-emergence, 240 h, read-out: Plant response rating, Ryegrass, Italian; for pest or weed control at 125 g/ha: 125 g ai/ha; for pest or weed control at 500 g/ha: 500 g ai/ha, 0 to 100 scale, 0 = no effect, 100 = complete control
Procedure, shortened: as §1

[7] = test system: Galium (catchweed bedstraw, Galium aparine); test: Test A postemergence; details: Galium, post-emergence, 240 h; for pest or weed control at 125 g/ha: 125 g ai/ha
Procedure, shortened: as §1

Kochia (Kochia scoparia) [8] = test: Test A postemergence; details: Bassia scoparia, post-emergence, 240 h; for pest or weed control at 125 g/ha: 125 g ai/ha
Procedure, shortened: as §1

corn (Zea mays) = test: Test A postemergence; details: Zea mays, post-emergence, 240 h; for Corn plant response rating (crop injury, 0 = no effect, 100 = complete kill) at 125 g/ha: postemergence, visual injury after approximately 10 d
Procedure, shortened: as §1

[9] = test system: pigweed (Amaranthus retroflexus); test: Test A postemergence; details: Amaranthus retroflexus, post-emergence, 240 h; for pest or weed control at 125 g/ha: 125 g ai/ha
Procedure, shortened: as §1

[10] = test system: barnyardgrass (Echinochloa crus-galli); test: Test B flooded paddy test; details: Echinochloa crus-galli, Flood, 250 g ai/ha, read-out: Barnyardgrass plant response rating
Procedure, shortened: (§2)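 Percent control, visually estimated after 13–15 d in the greenhouse on a 0–100 basis, compares treated pots with untreated ones; compound was put into paddy water 3 cm above the soil when plants had two leaves.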

[11] = test system: ducksalad (Heteranthera limosa); test: Test B flooded paddy test; details: Heteranthera limosa, Flood, 250 g ai/ha, read-out: Ducksalad plant response rating
Procedure, shortened: as §2

rice (Oryra sativa) = test: Test B flooded paddy test; details: Oryza sativa, Flood, 250 g ai/ha, read-out: Rice plant response rating
Procedure, shortened: as §2

[12] = test system: sedge, umbrella (small-flower umbrella sedge, Cyperus difformis); test: Test B flooded paddy test; details: Cyperus difformis, Flood, 250 g ai/ha
Procedure, shortened: as §2

[13] = preemergence, visual rating after approx. 10 d, 0 to 100 scale where 0 is no effect and 100 is complete control, read-out: Plant response rating, Kochia
[14] = preemergence, 0 to 100 scale, 0 = no effect, 100 = complete control, read-out: Plant response rating, Kochia
[15] = preemergence, visual rating after approx. 10 d, 0 to 100 scale where 0 is no effect and 100 is complete control, read-out: Plant response rating, Barnyardgrass
[16] = preemergence, 0 to 100 scale, 0 = no effect, 100 = complete control, read-out: Plant response rating, Barnyardgrass
[17] = preemergence, visual rating after approx. 10 d, 0 to 100 scale where 0 is no effect and 100 is complete control, read-out: Plant response rating, Foxtail, Giant
[18] = preemergence, 0 to 100 scale, 0 = no effect, 100 = complete control, read-out: Plant response rating, Foxtail, Giant
[19] = preemergence, visual rating after approx. 10 d, 0 to 100 scale where 0 is no effect and 100 is complete control, read-out: Plant response rating, Pigweed
[20] = preemergence, 0 to 100 scale, 0 = no effect, 100 = complete control, read-out: Plant response rating, Pigweed
[21] = preemergence, visual rating after approx. 10 d, 0 to 100 scale where 0 is no effect and 100 is complete control, read-out: Plant response rating, Ragweed
[22] = preemergence, 0 to 100 scale, 0 = no effect, 100 = complete control, read-out: Plant response rating, Ragweed
[23] = preemergence, visual rating after approx. 10 d, 0 to 100 scale where 0 is no effect and 100 is complete control
[24] = postemergence, visual injury after approximately 10 d, 0 to 100 scale (0 no effect, 100 complete control), read-out: Plant response rating, Galium
[25] = postemergence, visual injury after approximately 10 d, 0 to 100 scale (0 no effect, 100 complete control), read-out: Plant response rating, Kochia
[26] = 125 g ai/ha, 0 to 100 scale (0 no effect, 100 complete control)
[27] = postemergence, visual injury after approximately 10 d, 0 to 100 scale (0 no effect, 100 complete control), read-out: Plant response rating, Pigweed
[28] = scale of 0 to 100 where 0 is no effect and 100 is complete control
[29] = scale of 0 to 100 where 0 is no effect and 100 is complete control, read-out: Sedge, Umbrella plant response rating
[30] = 0 to 100 scale where 0 is no effect and 100 is complete control

CN1C[C@H](c2cc(F)cc(F)c2)[C@@H](C(=O)NC2CCc3ccccc32)C1=O (stereo partly drawn) [Compound 755] was tested, and the pest or weed control at 125 g/ha (Kochia (Kochia scoparia) [1]; [13]) was 0%, the pest or weed control at 500 g/ha (Kochia (Kochia scoparia) [1]; [14]) was 0% and the pest or weed control at 125 g/ha [2, 15] was 0%. The pest or weed control at 500 g/ha [2, 16] was 0%, the pest or weed control at 125 g/ha [3, 17] was 0% and the pest or weed control at 500 g/ha [3, 18] was 0%. It also gave a pest or weed control at 125 g/ha [4, 19] of 0%, a pest or weed control at 500 g/ha [4, 20] of 0% and a pest or weed control at 125 g/ha [5, 21] of 0%. For the same compound, the pest or weed control at 500 g/ha [5, 22] was 0%, the pest or weed control at 125 g/ha [6, 23] was 0% and the pest or weed control at 500 g/ha ([6]; preemergence) was 0%. It also gave a pest or weed control at 125 g/ha [7, 24] of 0%, a pest or weed control at 125 g/ha (Kochia (Kochia scoparia) [8]; [25]) of 0% and a Corn plant response rating (crop injury, 0 = no effect, 100 = complete kill) at 125 g/ha (corn (Zea mays); [26]) of 0%. For the same compound, the pest or weed control at 125 g/ha [9, 27] was 0%, the pest or weed control at 250 g/ha [10, 28] was 0% and the pest or weed control at 250 g/ha [11, 28] was 0%. The pest or weed control at 250 g/ha (rice (Oryra sativa); [28]) was 0% and the pest or weed control at 250 g/ha [12, 29] was 0%.

With Cc1c(F)ccc([C@H]2CNC(=O)[C@@H]2C(=O)Nc2ccccc2F)c1F [Compound 1326] the pest or weed control at 500 g/ha (Kochia (Kochia scoparia) [1]; preemergence, 0 to 100 scale where 0 is no effect and 100 is complete control, read-out: Kochia plant response rating) was 100%, the pest or weed control at 125 g/ha (Kochia (Kochia scoparia) [1]; Preemergence, 0 to 100 scale (0 no effect, 100 complete control), read-out: Plant response rating, Kochia) was 30% and the pest or weed control at 500 g/ha ([2]; preemergence, 0 to 100 scale where 0 is no effect and 100 is complete control, read-out: Barnyardgrass plant response rating) was 90%. It also gave a pest or weed control at 125 g/ha ([2]; Preemergence, 0 to 100 scale (0 no effect, 100 complete control), read-out: Plant response rating, Barnyardgrass) of 80%, a pest or weed control at 500 g/ha ([3]; preemergence, 0 to 100 scale where 0 is no effect and 100 is complete control, read-out: Foxtail, Giant plant response rating) of 90% and a pest or weed control at 125 g/ha ([3]; Preemergence, 0 to 100 scale (0 no effect, 100 complete control), read-out: Plant response rating, Foxtail, Giant) of 60%. The pest or weed control at 500 g/ha ([4]; preemergence, 0 to 100 scale where 0 is no effect and 100 is complete control, read-out: Pigweed plant response rating) was 0%, the pest or weed control at 125 g/ha ([4]; Preemergence, 0 to 100 scale (0 no effect, 100 complete control), read-out: Plant response rating, Pigweed) was 0% and the pest or weed control at 500 g/ha ([5]; preemergence, 0 to 100 scale where 0 is no effect and 100 is complete control, read-out: Ragweed plant response rating) was 0%. For the same compound, the pest or weed control at 125 g/ha ([5]; Preemergence, 0 to 100 scale (0 no effect, 100 complete control), read-out: Plant response rating, Ragweed) was 0%, the pest or weed control at 125 g/ha ([6]; Preemergence, 0 to 100 scale (0 no effect, 100 complete control)) was 20% and the pest or weed control at 125 g/ha ([7]; Postemergence, visual rating about 10 d after treatment, read-out: Galium plant response rating (0 to 100 scale)) was 0%. For the same compound, the pest or weed control at 500 g/ha ([7]; Postemergence, 500 g ai/ha, visual injury, 0 to 100 scale (0 no effect, 100 complete control), approx. 10 d, read-out: Plant response rating, Galium) was 20%, the pest or weed control at 125 g/ha (Kochia (Kochia scoparia) [8]; Postemergence, visual rating about 10 d after treatment, read-out: Kochia plant response rating (0 to 100 scale)) was 0% and the pest or weed control at 500 g/ha (Kochia (Kochia scoparia) [8]; Postemergence, 500 g ai/ha, visual injury, 0 to 100 scale (0 no effect, 100 complete control), approx. 10 d, read-out: Plant response rating, Kochia) was 0%. For the same compound, the plant injury at 125 g/ha (corn (Zea mays); 125 g ai/ha, Postemergence, visual rating about 10 d after treatment, read-out: Corn plant response rating (0 to 100 scale)) was 0%, the Corn plant response rating (crop injury, 0 = no effect, 100 = complete kill) at 500 g/ha (corn (Zea mays); Postemergence, 500 g ai/ha, visual injury, 0 to 100 scale (0 no effect, 100 complete control), approx. 10 d) was 0% and the pest or weed control at 125 g/ha ([9]; Postemergence, visual rating about 10 d after treatment, read-out: Pigweed plant response rating (0 to 100 scale)) was 0%. For the same compound, the pest or weed control at 500 g/ha ([9]; Postemergence, 500 g ai/ha, visual injury, 0 to 100 scale (0 no effect, 100 complete control), approx. 10 d, read-out: Plant response rating, Pigweed) was 0%, the pest or weed control at 250 g/ha [10, 30] was 0% and the pest or weed control at 250 g/ha [11, 30] was 70%. The pest or weed control at 250 g/ha (rice (Oryra sativa); [30]) was 0% and the pest or weed control at 250 g/ha ([12]; 360 h, visually evaluated after 13 to 15 d, read-out: Plant response rating, Sedge, Umbrella (0 to 100 scale where 0 is no effect and 100 is complete control)) was 0%.

CCc1cc(CC)cc([C@H]2CN(C)C(=O)[C@@H]2C(=O)Nc2ccccc2F)c1 [Compound 735] gave a pest or weed control at 125 g/ha (Kochia (Kochia scoparia) [1]; [13]) of 20%, a pest or weed control at 500 g/ha (Kochia (Kochia scoparia) [1]; [14]) of 80% and a pest or weed control at 125 g/ha [2, 15] of 90%. The pest or weed control at 500 g/ha [2, 16] was 90%, the pest or weed control at 125 g/ha [3, 17] was 90% and the pest or weed control at 500 g/ha [3, 18] was 90%. For the same compound, the pest or weed control at 125 g/ha [4, 19] was 0%, the pest or weed control at 500 g/ha [4, 20] was 20% and the pest or weed control at 125 g/ha [5, 21] was 0%. The pest or weed control at 500 g/ha [5, 22] was 0%, the pest or weed control at 125 g/ha [6, 23] was 80% and the pest or weed control at 500 g/ha ([6]; preemergence) was 90%. The pest or weed control at 125 g/ha [7, 24] was 40%, the pest or weed control at 125 g/ha (Kochia (Kochia scoparia) [8]; [25]) was 30% and the Corn plant response rating (crop injury, 0 = no effect, 100 = complete kill) at 125 g/ha (corn (Zea mays); [26]) was 80%. It also gave a pest or weed control at 125 g/ha [9, 27] of 20%, a pest or weed control at 250 g/ha [10, 28] of 60% and a pest or weed control at 250 g/ha [11, 28] of 40%. For the same compound, the pest or weed control at 250 g/ha (rice (Oryra sativa); [28]) was 0% and the pest or weed control at 250 g/ha [12, 29] was 0%.
